Earlier results, collected in patent publication US10912302B2, “Glyphosate salt herbicidal composition” (Monsanto Technology LLC, priority 2004, dated 2021).

Conditions: 25° C.

O=C(O)CNCP(=O)(O)O [Glyphosate, glyphosate]
solubility in water: 1.16 % by weight
